{
  "source": "patent US9757403B2",
  "about": "“Glycan therapeutics and related methods thereof” (KALEIDO BIOSCIENCES, INC., priority 2015, dated 2017)",
  "tested_on": "Clostridium difficile (strain VPI 10463 (ATCC-43255))",
  "test": "Mouse model of Clostridium difficile infection, disease-associated phenotypes and spore carriage",
  "type": "in vivo, Mice (female C57BL/6)",
  "description": "This experiment was conducted to analyze the effects of glycan therapeutics in a mouse model of Clostridium difficile infection (Chen et al, 2008, A Mouse Model of Clostridium difficile-Associated Disease. Gastroenterology 135(6), 1984-1992). In this model, normal mice were exposed to an antibiotic regimen that renders them susceptible to C. difficile infection and disease symptoms, similar with respect to their development and manifestation of human clinical disease. In humans, the disease is most often the result of exposure to broad spectrum antibiotics which is thought to result in intestinal dysbiosis and subsequent increased colonic colonization with C. difficile. […]\nDisease-associated phenotypes were recorded for a duration of ten days starting on the day of Clostridium difficile challenge (on day 0) through day 10. The phenotypes, including lethargy, hunched posture and ruffled coat, wet tail/abdomen and hypothermia were scored from 0 to 4: Normal=0; Lethargic=1; Lethargic+Hunched=2; Lethargic+Hunched+Wet tail/abdomen (diarrhea)=3; and Lethargic+Hunched+Wet tail/abdomen+Hypothermic=4. Death (day 0 to day 10 or 11) and weight (day 1 to day 7 and day 10) of the animals was also monitored and recorded.\nIn addition, carriage of Clostridium difficile spores, which is indicative of Clostridium difficile gut colonization in both mice and humans, was assessed daily from day 0 to day 6. […]",
  "data": [
    {"smiles": "CN[C@H](CC(C)C)C(=O)N[C@H]1C(=O)N[C@@H](CC(N)=O)C(=O)N[C@H]2C(=O)N[C@H]3C(=O)N[C@H](C(=O)N[C@H](C(=O)O)c4cc(O)cc(O)c4-c4cc3ccc4O)[C@H](O)c3ccc(c(Cl)c3)Oc3cc2cc(c3O[C@@H]2O[C@H](CO)[C@@H](O)[C@H](O)[C@H]2O[C@H]2C[C@](C)(N)[C@H](O)[C@H](C)O2)Oc2ccc(cc2Cl)[C@H]1O", "note": "[Vancomycin, vancomycin]", "values": [
      {"measurement": "clinical signs on day 10", "setting": "PO gavage QD days 0 to 4", "value": "exhibited clinical signs"},
      {"measurement": "clinical score of survivors", "setting": "score 0 to 4, after end of treatment, days 7 to 10", "value": "above 0"}
    ]}
  ]
}
